Assay in all cases: growth of human tumour cells (NCI), 48 h
Test [1] has as its system HCT-15 colon.
The test system of test [2] is MDA-MB-231 breast.
In test [3] the test system is T-47D breast.
Test [4] has as its system SF-268 CNS.
Test [5] relates to COLO 205 colon.
In test [6] the test system is HCC-2998 colon.
In test [7] the test system is NCI-H460 lung.
The test system of test [8] is SNB-75 CNS.
The subject of test [9] is HCT-116 colon.
Test [10] deals with RPMI-8226 leukemia.

Molecules are shown by their SMILES.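 How tested: cells in 96-well plates exposed to compound for 48 hours at five concentrations. Here, GI50 denotes the concentration required for 50% inhibition of growth. The concentration for full growth arrest is given as TGI.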

`O=C(Nc1ccccc1)c1cc2ccccc2c(N=Nc2cccc([N+](=O)[O-])c2)c1O`: the TGI in [1], in test [2], in test [3], in test [4], in test [5] and in test [6] was more than 100 µM throughout. Besides, the TGI in test [7], in [8] and in test [9] was more than 100 µM in each case.

On to `C1=N[C@]23C(=N[C@H](N=C2NCc2ccco2)[C@]24N=CNC2=N[C@H]3N=C4NCc2ccco2)N1`, for which the GI50 in [10], in test [1], in test [2], in test [3], in test [4] and in [5] was more than 100 µM in each case. In addition, the GI50 is more than 100 µM in test [6], more than 100 µM in test [7], 67.1 µM in [8] and more than 100 µM in [9]. For the same compound, the TGI in test [10], in test [1], in [2], in [3], in test [4] and in [5] was more than 100 µM in each case. For the same compound, the TGI in test [6], in [7], in [8] and in test [9] was more than 100 µM in each case.

On to `Cc1c(C)c2c(c(C)c1OC(=O)CCC(=O)[O-])CCC(C)(CCCCCCCCCCC[P+](c1ccccc1)(c1ccccc1)c1ccccc1)O2` (stereo not given), for which the GI50 in [10] was 0.0151 µM; in test [1] it was 0.977 µM; in test [3], 0.124 µM; in [6], 0.214 µM; in [8], 0.123 µM. Also, the TGI in test [10] is 0.148 µM; in test [1], 3.02 µM; in [3] it was 0.966 µM; in test [6], 0.809 µM; in test [8], 0.49 µM.

In the case of `O=C([CH-]C(=O)c1ccccc1)c1ccccc1.[C-]#[O+].[C-]#[O+].[Ir]`, the GI50 in test [1] was 42.6 µM; in [6], more than 100 µM; in test [7] it was 39.7 µM; in [8], 45.6 µM. Further, the TGI in [1], in [6], in [7] and in test [8] was more than 100 µM each time.

Consider `C=C1CC[C@@]2(C)[C@@H]([C@@H]1C)[C@H]1CC[C@@H]3[C@@]4(C)CC[C@H](O)C(C)(C)[C@@H]4CC[C@@]3(C)[C@]1(C)C[C@@H]2O`, for which the TGI in test [10] was more than 100 µM; in test [1], 11.2 µM; in [2] it was 4.75 µM; in test [3] it was 8.76 µM; in [4], 9.76 µM; in [5], more than 100 µM. In addition, the TGI was 4.7 µM in test [7] and more than 23.9 µM in [9].

In the case of `CON(C)c1nc(N)c(C#N)c(C#N)c1C#N`, the TGI in test [10], in [1], in test [2], in test [3], in test [4] and in [5] was more than 10 µM each time. Further, the TGI in test [6], in test [7], in [8] and in test [9] was more than 10 µM throughout.

Regarding `C[C@@H]1C[C@H]2OC(=O)[C@@]3(C)CCC[C@@](C)([C@@H]23)[C@@]1(O)CCc1ccoc1`, the TGI in [10], in test [1], in test [2], in test [3], in test [4] and in test [5] was more than 100 µM in each case. Moreover, the TGI in test [6], in test [7], in test [8] and in test [9] was more than 100 µM throughout.

For the compound `COc1cccc(N/C(C)=C2/CCOC2=O)c1`, the TGI in [10], in test [1], in test [2], in test [3], in test [4] and in test [5] was more than 10 µM each time. The TGI in [6], in [7], in [8] and in test [9] was more than 10 µM in each case.

Values taken from PubChem BioAssay (NCI).
